Patent US20150352072A1, “ZINC N-ACETYL TAURINATE FOR THE TREATMENT OF PROSTATE CANCER” (TRI-INOV, priority 2011, published 2015)
Entries after “also recorded” stand apart in the source; their conditions may differ.

Columns and labels:
Assay type in all cases: cell-based
Bax/Bcl-2 ratio = assay: Bax/Bcl-2 mRNA ratio by RT-Q-PCR in LNCaP cells; conditions: 10^−5-10^−9M, 48 hours
Method: (§1) For the dose-dependence studies, the cells (50% confluent) were treated with ATA-Zn at the concentrations of 10^−3, 10^−4, 10^−5, 10^−6, 10^−7, 10^−8 and 10^−9M, for 24 hours, 48 hours and 72 hours in their respective growth medium. After 48 h of treatment, the cells were harvested and counted in the pellet. In parallel, the cell lysates were prepared in order to extract the mRNA for RT-Q-PCR and Western blotting.
(§2) The mRNA was extracted from the cells in culture using the “SV Total RNA isolation” kit from the company Promega and according to the procedure hereinafter:
(§3) A reverse transcription of the RNA was then carried out using the ready to go kit (kit known as “Ready To Go, You Prime First Strand Beads” commercially available from Amersham Biosciences, Piscataway, United States) in accordance with the supplier's instructions using 3 μg of RNA.
(§4) The “LightCycler-Fast Start DNA Master SYBR Green I” test commercially available from Roche Diagnostics, Meylan, France, was used to quantify the gene expression by means of a real-time polymerase chain reaction (PCR). […]
LNCaP cells were incubated with various concentrations of ATA-Zn (10^−5-10^−9M) for 48 hours. The change in the synthesis of Bax mRNA and Bcl-2 mRNA was measured by RT-Q-PCR according to the procedure described previously in the section entitled “Materials and methods”.

[1] = test system: Normal prostate epithelial cells (PrECs); assay: Cell count by Trypan blue exclusion, normal PrECs
Method: Normal prostate epithelial cells (PrECs) and the PrEC growth medium sold by the company Cambrex Bioscience (Walkersville, Md.) were used by way of comparison.
as §1
(§5) In order to evaluate the number of cells, the cell pellets were mixed with 1 ml of their respective medium and the cell viability and the number of cells were evaluated by means of a Trypan blue exclusion test.

Bax and Bcl-2 = assay: Bax/Bcl-2 mRNA by RT-Q-PCR in PrECs; conditions: Bax and Bcl-2 base amount too low for PCR amplification, a conclusion
Method: as §1, §2, §3
(§6) The “LightCycler-Fast Start DNA Master SYBR Green I” test commercially available from Roche Diagnostics, Meylan, France, was used to quantify the gene expression by means of a real-time polymerase chain reaction (PCR). The PCR (program: 95° C., 30 seconds; 40 cycles: 95° C., 5 seconds; 60° C., 35 seconds) was carried out using a “Mastercycler ep realplex” apparatus sold by the company Eppendorf, Hamburg, Germany.
(§7) The expression of the target gene was standardized relative to the GAPDH housekeeping gene. […]

[2] = test system: LNCaP prostate cancer cell line; assay: Cell count by Trypan blue exclusion, LNCaP cancer cells
Method: The LNCaP prostate cancer cell line, deposited in the ATCC under No. CRL-1740, was used.
The cell culture medium was RPMI 1640 complete growth medium (ATCC No. 30-2001), containing 2 mM L-glutamine, 10 mM HEPES and 1.0 mM sodium pyruvate, to which the following were added: • 1) sodium carbonate and glucose in amounts sufficient to obtain a sodium carbonate concentration of 20 mM and a glucose concentration of 25 mM, • 2) […] by volume of a mixture of antibiotics (10 μg/ml of gentamycin, 100 IU of penicillin, 100 μg/ml of streptomycin), and • 3) 10% by volume of fetal calf serum.
as §1, §5
The viable cells and the non-viable cells were counted after Trypan blue exclusion. […] The mortality evolved in the opposite direction, with a maximum increase of about 50%. The concentration of 10^−3M was toxic. The results obtained are reported on the graphs of FIGS. 1a and 1b, which give the percentage of cancer cells relative to the control (cell culture without ATA-Zn) as a function of the concentration of ATA-Zn. FIG. 1a relates to the viable cells and FIG. 1b relates to the non-viable cells.

cyclin-D1 mRNA [3] = assay: Cyclin-D1 mRNA by RT-Q-PCR in normal cells; conditions: normal cells (PrECs), 24 hours
Method: as §1, §2, §3, §6, §7

cyclin-D1 mRNA [4] = assay: Cyclin-D1 mRNA by RT-Q-PCR in LNCaP cells; conditions: 10^−5-10^−9M, after 24 hours of exposure
Method: as §1, §2, §3, §4
The amount of cyclin-D1 mRNA was measured by RT-Q-PCR according to the procedure previously described in the section entitled “Materials and methods”. […]

Nrf-2 protein = Nrf-2 protein by Western blotting in LNCaP cells; conditions: 48 hours, standardized relative to actin
Method: (§8) The cells were lysed in the buffer for the radioimmunoprecipitation test, having the composition hereinafter:
(§9) The proteins were then separated by SDS-PAGE and were transferred onto a Hybond-P PVDF membrane (Amersham Biosciences, Pantin, France). The membranes were incubated for 1 hour at ambient temperature with a blocking solution consisting of skimmed milk powder at 5% in TBS-T buffer (50 mM Tris-HCl, pH 8.0, 150 mM NaCl, Tween-20 at 0.1%).
(§10) The membranes were then incubated with rabbit primary antibodies directed against cyclin-D1 (No. 29785); the markers Bax (No. 1063.1) and BCL-2 (No. 1017-1); Nrf-2 (No. 2178-1) and SOD-1 (No. 2018-1) all sold by the company Epitomies under the references indicated above, and the A2103 anti-actin, N-terminal, antibodies sold by the company Sigma-Aldrich (Saint Quentin Fallavier, France) in the blocking solution overnight at 4° C. The said antibodies were diluted in accordance with the manufacturer's instructions to 1/1000. The anti-actin antibodies served to standardize the membranes. […]
(§11) LNCaP cells were incubated with a range of ATA-Zn concentrations for 48 hours. The amount of Nrf-2 and SOD-1 proteins were then measured by Western blotting. The quantification was carried out with the “Quantity One” software and the results were standardized relative to the actin data. […]

SOD-1 protein = SOD-1 protein by Western blotting in LNCaP cells; conditions: 48 hours, standardized relative to actin
Method: as §8, §9, §10, §11

zinc N-acetyltaurinate [ATA-Zn]
Bax/Bcl-2 ratio (mRNA) (Bax/Bcl-2 ratio): greatly increased | toxicity at the dose of 10^−3M ([1]; PrECs, 10^−3M): toxic | state of cells after 72 hours with 10^−3M ([1]; PrECs, 10^−3M, 72 hours of incubation): completely dead | effect on the number of cells ([1]; normal PrECs, up to 72 hours of incubation, doses below 10^−3M): no effect | apoptosis in normal PrECs (Bax and Bcl-2): not influenced | antiproliferative effect / number of cells ([2]; LNCaP cancer cells of the prostate, 48 hours, each dose): antiproliferative effect; also recorded: reduced the number of cells at each dose | toxicity at the concentration of 10^−3M ([2]; LNCaP, 10^−3M): toxic | maximum reduction of the number of cells ([2]; LNCaP, 48 hours of incubation, highest concentration (10^−4), relative to control): 25% | maximum increase of mortality (non-viable cells) ([2]; LNCaP, 48 hours of incubation, relative to control): about 50% | concentrations at which nontoxic ([2]; general statement on the in vitro cell tests): below 10^−3 M | synthesis of cyclin-D1 mRNA (cyclin-D1 mRNA [3]): no effect | synthesis of cyclin-D1 mRNA (cyclin-D1 mRNA [4]): reduces | Nrf-2 protein (Nrf-2 protein): repressed | level of the SOD-1 protein (SOD-1 protein): decreases
